# Settings: 25 °C
row,Structure (SMILES),solubility
1,Brc1ccc2ccccc2c1,0.0398 mM
2,Brc1cccc(Br)c1Br,0.00912 mM
3,CCCCC(=O)OC,43.6 mM
4,c1ccc(NNc2ccccc2)cc1,1.2 mM
5,CCCNCCC,579 mM
6,Nc1cccc(C(F)(F)F)c1,33.9 mM
7,CCC(C)(C)Cl,3.09 mM
8,Cc1cc(O)ccc1Cl,26.9 mM

# Continued, values first:
row,solubility,Structure (SMILES)
1,6490 mM,CC(O)CNCC(C)O (centres undefined)
2,2.14 mM,CCCOC(=O)c1ccccc1
3,19.9 mM,CCNc1ccccc1
4,0.0978 mM,COC(=O)c1ccc(C(=O)OC)cc1
5,1.85 mM,CCCCCCl
6,0.754 mM,CCCCCCCl

# From the OPERA property sets (Mansouri et al. 2018)
